According to US11963985B2, “Coral composite extract, composition including the same and method of producing the same” (National Sun Yat-Sen University, priority 2018, dated 2024):

Assay: partition coefficient (log P) of EXC-B
Assay type: physicochemical
Experimental: Next, as STEP 103 depicts, the crude extraction step is performed on the coral staring material to obtain a crude extract, in which a first solvent is applied. In one embodiment, there is no limitation of the kind of the first solvent. However, the one having a polarity index P′ value closer to a polarity index P′ value of the coral composite extract is the better. For example, a partition coefficient (log P) of EXC-B is about 0.9 and an octanol-water partition coefficient (Clog P) of EXC-B is about 3.5568. Therefore, the polarity index P′ value of the first solvent can be 0.1 to 6.0, but 1.0 to 5.4 is better.

## excavatolide B [EXC-B]
  partition coefficient (log P): about 0.9
